Data set [1] has as its system mice. Kind of data set: Hot-plate test (analgesia). The class given is in vivo, mouse. The conditions noted are these: for ED50: Mus musculus, read-out: ED50 (μg/kg, sc); for ED50 / analgesic activity (in words): sc. How it is done: A test on mice (“hot-plate test”) was carried out as described earlier (E. L. May et al., J. Med. Chem. 2000; 43, 5030-5036).
The subject of data set [2] is mice. As to the kind of experiment: animal or person. The class given is in vivo. Particulars: mouse tail flick test; for analgesic activity (in words) / ED50: sc; for ED50: read-out: ED50 (μg/kg, sc). In general terms: In hot-plate and tail-flick tests a longer latency is read as antinociception.
In a further data set the target is T1, μ-opioid receptors (Rattus norvegicus, UniProt P33535).
T1 construct: from tissue; host or cells: rat brain homogenate
T1 sequence (P33535 whole entry): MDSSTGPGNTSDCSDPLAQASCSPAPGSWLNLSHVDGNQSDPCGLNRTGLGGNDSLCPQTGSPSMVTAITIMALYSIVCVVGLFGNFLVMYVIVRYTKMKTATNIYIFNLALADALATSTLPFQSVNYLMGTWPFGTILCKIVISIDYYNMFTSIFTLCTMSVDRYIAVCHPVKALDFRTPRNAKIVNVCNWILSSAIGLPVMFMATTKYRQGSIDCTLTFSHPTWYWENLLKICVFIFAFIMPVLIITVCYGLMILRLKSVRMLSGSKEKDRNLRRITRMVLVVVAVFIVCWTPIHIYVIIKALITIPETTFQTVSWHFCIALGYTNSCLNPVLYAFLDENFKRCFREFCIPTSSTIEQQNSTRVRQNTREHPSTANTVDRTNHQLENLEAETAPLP
Kind of data set: Opioid receptor binding studies on rat's brain homogenisates with [3H]DAMGO. Particulars: for Ki: [3H]DAMGO as radio-ligand, rat's brain homogenisates, read-out: Ki (nM) (μ-receptors).

The text below walks through data of patent US7655671B2, “Morphinan derivatives, the quaternary ammonium salts thereof substituted in position 14, method for production and use thereof” (priority 2002, dated 2010).

The structures appear in SMILES notation. pKi: −log10 of the molar value. Where a name gives a salt, the structure may show the parent alone. Read-outs that look alike come from different tables or passages of the source.

The melting point is the temperature of the solid-liquid transition. What is called Ki is a measure of affinity in units of concentration, obtained from inhibition or displacement. By pKi is commonly meant the negative decadic logarithm of the Ki, by convention in mol/L. Lower therefore signals a high Ki.

For `COc1ccc2c3c1O[C@@]1(Cc4ccccc4)C(=O)C=C[C@@]4(OC)[C@@H](C2)N(C)CC[C@]314` (stereo in doubt) (as salt: hydrochloride), the melting point was in the range of 164 to 166 °C.

As to `COc1ccc2c3c1O[C@H]1C(=O)CC[C@@]4(OCCCc5ccccc5)[C@@H](C2)N(CCc2ccccc2)CC[C@]314` [Compound 4, 4,5α-epoxy-3-methoxy-17-(2-phenylethyl)-14β-(3-phenylpropyloxy)morphinan-6-one hydrochloride], the results for the ED50 with mice [1] (subcutaneous application) and in the data set on mice [2] (subcutaneous application) were 60 µg/kg and 84 µg/kg, respectively. Further, the “analgesic activity (in words)” value in the data set on mice [1] and in the data set on mice [2] was “somewhat lower analgesic activity” each time.

With `C=CCN1CC[C@]23c4c5ccc(O)c4O[C@H]2C(=O)CC[C@@]3(OCCCc2ccccc2)[C@H]1C5` [Compound 6, 17-allyl-4,5α-epoxy-3-hydroxy-14β-(3-phenylpropyloxy)morphinan-6-one hydrochloride], the ED50 is 5.9 µg/kg in the data set with mice [1] (subcutaneous application) and 5.6 µg/kg with mice [2] (subcutaneous application).

As for `O=C1CC[C@@]2(OCCCc3ccccc3)[C@H]3Cc4ccc(O)c5c4[C@@]2(CCN3CC2CCC2)[C@H]1O5` [Compound 7, 17-cyclobutylmethyl-4,5α-epoxy-3-hydroxy-14β-(3-phenylpropyloxy)morphinan-6-one hydrochloride], the results for the ED50 in the data set on mice [1] (subcutaneous application) and with mice [2] (subcutaneous application) were 3.7 µg/kg and 8.2 µg/kg, respectively.

`O=C1CC[C@@]2(OCCCc3ccccc3)[C@H]3Cc4ccc(O)c5c4[C@@]2(CCN3CC2CC2)[C@H]1O5` [Compound 8, 17-cyclopropylmethyl-4,5α-epoxy-3-hydroxy-14β-(3-phenylpropyloxy)morphinan-6-one hydrochloride]: the ED50 stood at 2.3 µg/kg with mice [1] (subcutaneous application) and 3.2 µg/kg with mice [2] (subcutaneous application). The Ki on μ-opioid receptors was determined as 0.34 nM.

For `O=C1CC[C@@]2(OCCCc3ccccc3)[C@H]3Cc4ccc(O)c5c4[C@@]2(CCN3CCc2ccccc2)[C@H]1O5` [Compound 9, 4,5α-epoxy-3-hydroxy-17-(2-phenylethyl)-14β-(3-phenylpropyloxy)morphinan-6-one hydrochloride], the ED50 in the data set on mice [1] (subcutaneous application) was 11.7 µg/kg.

Turning to `O=C1CC[C@@]2(OCCCc3ccccc3)C3Cc4ccc(O)c5c4[C@@]2(CCN3CC2CCCO2)[C@H]1O5` (stereo partly drawn) [Compound 10, 4,5α-epoxy-17-[2-((R,S)-tetrahydrofuran-2-yl)methyl]-3-hydroxy-14β-(3-phenylpropyloxy)morphinan-6-one hydrochloride], the ED50 with mice [1] (subcutaneous application) was 1.3 µg/kg; in the data set with mice [2] (subcutaneous application), 7 µg/kg.

Take `CCCN1CC[C@]23c4c5ccc(O)c4O[C@H]2C(=O)CC[C@@]3(OCCCc2ccccc2)[C@H]1C5` [Compound 11, 4,5α-epoxy-3-hydroxy-14β-(3-phenylpropyloxy)-17-propylmorphinan-6-one hydrochloride]: the ED50 came to 1.7 µg/kg with mice [1] (subcutaneous application) and 1.6 µg/kg with mice [2] (subcutaneous application).

Take `C#CCOc1ccc2c3c1O[C@@]1(C)C(=O)CC[C@@]4(OCCCc5ccccc5)[C@@H](C2)N(C)CC[C@]314.Cl` [Compound 17, 4,5α-epoxy-5β,17-dimethyl-14β-[(3-phenylpropyl)oxy]-3-[(prop-2-inyl)oxy]morphinan-6-one hydrochloride]: the “analgesic activity (in words)” value in the data set on mice [1] is recorded as “surprisingly high”. Also, the figures for the “ED50 (μg/kg, sc)” value in the data set with mice [1] (subcutaneous application) and with mice [2] (subcutaneous application) were 38 µg/kg and 21 µg/kg, respectively. Also, at μ-opioid receptors, the Ki was 0.73 nM.

For `CN1CC[C@]23c4c5ccc(O)c4O[C@@]2(C)C(=O)CC[C@@]3(OCCCc2ccccc2)[C@H]1C5` [Compound 17b, 4,5α-epoxy-3-hydroxy-5β,17-dimethyl-14β-[(3-phenylpropyl)oxy]morphinan-6-one hydrobromide], the ED50 with mice [1] (subcutaneous application) worked out at 0.1 µg/kg. The same compound had a negative-log Ki (pKi) at μ-opioid receptors of 9.70.

With `COc1ccc2c(c1OC)[C@]13CCN(C)[C@H](C2)[C@]1(OCCCc1ccccc1)CCC(=O)[C@H]3C` [Compound 32, 3,4-dimethoxy-5β,17-dimethyl-14β-[(3-phenylpropyl)oxy]morphinan-6-one hydrochloride], the ED50 with mice [1] (subcutaneous application) was determined as 22 µg/kg; in the data set with mice [2] (subcutaneous application), 14 µg/kg. In addition, the “analgesic activity (in words)” value was “somewhat lower analgesic activity” with mice [1] and “very high analgesic activity” in the data set on mice [2].

As for `C[N@+]1(CC2CCCO2)CC[C@]23c4c5ccc(O)c4OC2C(=O)CCC3(OCCCc2ccccc2)C1C5.[I-]` (stereo partly drawn) [Compound 40, (17R)-4,5α-epoxy-3-hydroxy-17-methyl-6-oxo-14β-[(3-phenylpropyl)oxy]-17-[(2-R,S-tetrahydrofurfuran-2-yl)methyl]morphinanium-iodide], the melting point lay in the range of 156 to 159 °C. At μ-opioid receptors, this compound gave a pKi of 9.43.

For `C=CC[N@@+]1(C)CC[C@]23c4c5ccc(O)c4O[C@H]2C(=O)CC[C@@]3(OCC)[C@H]1C5.[I-]` [Compound 41, (17R)-17-allyl-4,5α-epoxy-14β-ethoxy-3-hydroxy-17-methyl-6-oxomorphinanium-iodide], the melting point was in the range of 130 to 134 °C. The compound further had a negative logarithm of the Ki (pKi) at μ-opioid receptors of 8.63.

`C=CC[N@+]1(C)CC[C@]23c4c5ccc(O)c4O[C@H]2C(=O)CC[C@@]3(OC)[C@H]1C5.[I-]` [Compound 43, (17S)-17-allyl-4,5α-epoxy-3-hydroxy-14β-methoxy-17-methyl-6-oxomorphinanium-iodide]: the melting point was more than 140 °C. At μ-opioid receptors, this compound had a negative-log Ki (pKi) of 8.88.

`COc1ccc2c3c1O[C@H]1C(=O)CC[C@@]4(OCCCc5ccccc5)[C@@H](C2)[N@@+](C)(CC2CC2)CC[C@]314.[I-]` [Compound 49, (17R)-17-cyclopropylmethyl-4,5α-epoxy-3-methoxy-17-methyl-6-oxo-14β-[(3-phenylpropyl)oxy]morphinanium-iodide] had a melting point of 133 to 136 °C. At μ-opioid receptors, this compound showed a pKi of 8.75.

In turn, `CN1CC[C@]23c4c5cccc4O[C@H]2C(=O)CC[C@@]3(OCCCc2ccccc2)[C@H]1C5` [Compound 53, 4,5α-epoxy-17-methyl-14β-[(3-phenylpropyl)oxy]morphinan-6-one] returned a melting point of 105 to 109 °C. In addition, the ED50 in the data set on mice [1] (subcutaneous application) was determined as 3 µg/kg. In addition, in the data set on mice [2] (subcutaneous application), the ED50 was 0.4 µg/kg.

In the case of `O=C1CC[C@@]2(OCCCc3ccccc3)[C@H]3Cc4cccc5c4[C@@]2(CC[N@H+]3CC2CC2)[C@H]1O5.[Cl-]` [Compound 54, 17-(cyclopropylmethyl)-4,5α-epoxy-14β-[(3-phenylpropyl)oxy]morphinan-6-one hydrochloride], the melting point fell in the range of 145 to 150 °C. Further, the pKi at μ-opioid receptors is 9.08.

Regarding `O=C1CC[C@@]2(OCCCc3ccccc3)[C@H]3Cc4cccc(O)c4[C@@]2(CC[N@H+]3CC2CC2)C1.[Cl-]` [Compound 55, 17-(cyclopropylmethyl)-4-hydroxy-14β-[(3-phenylpropyl)oxy]morphinan-6-one hydrochloride], the melting point is > 170 °C (dec.). At μ-opioid receptors, this compound showed a negative logarithm of the Ki (pKi) of 9.40.

Consider `COc1cccc2c1[C@]13CC[N@@H+](CC4CC4)[C@H](C2)[C@]1(OCCCc1ccccc1)CCC(=O)C3.[Cl-]` [Compound 56, 17-(cyclopropylmethyl)-4-methoxy-14β-[(3-phenylpropyl)oxy]morphinan-6-one hydrochloride], for which the melting point lay within 121 to 126 °C. In addition, at μ-opioid receptors, the pKi was 9.47.

`COc1cccc2c1[C@]13CCN(CC4CC4)[C@H](C2)[C@]1(OC)CCC(=O)C3` [Cyprodime, cyprodime, reference compound] showed a pKi on μ-opioid receptors of 7.63.
